Laboratory results from US20160257697A1, “THIOPHENE-SUBSTITUTED TETRACYCLIC COMPOUNDS AND METHODS OFUSE THEREOF FOR THE TREATMENT OF VIRAL DISEASES” (priority 2013, published 2016).
Read-outs that look alike come from different tables or passages of the source.

Assays:
HCV replicon 1A = assay: microbe, parasite or virus in culture; format: cell-based, Hepatitis C virus (HCV); settings: replicon 1A, Replicon Assay A
Experimental: (§1) To measure cell-based anti-HCV activity of compounds of the present invention, two complimentary assays were employed using various replicons. In the first assay (“Replicon Assay A”), replicon cells were seeded at 2000 cells/well in 384-well 384-well flat bottom tissue culture treated clear bottom plate (Corning 3707) in the presence of the test compound. […] The final concentration of DMSO was 0.5%. Fetal bovine serum was 5%, in the assay media. Cells were harvested on day 3 by removing media and washing the cells with a suitable wash buffer. The cells are lysed with the addition of 1× Qiagen lysis buffer (Cat #1062731). The replicon RNA level was measured using real time PCR (TaqMan® EZ RT-PCR, Applied Biosystems 403028) with the following primers and probes: […]
(§2) Cyclophilin RNA was used as endogenous control and was amplified in the same reaction as NS5B (multiplex PCR). The real-time RT-PCR reactions were run on ABI PRISM 7900HT Sequence Detection System using the following program: 50° C. for 2 minutes, 60° C. for 30 minutes, 95° C. for 5 minutes, 40 cycles of 94° C. for 20 sec, 55° C. for 1 minutes.
(§3) The amount of HCV replicon RNA per cell is quantified using a linear regression curve for a known nanogram (ng) amount of HCV replicon total RNA. This is established by plotting the Cycle Threshold values (Ct) from the Neo probe and primer set versus the log (ng) for each HCV replicon total RNA standard. The amount of HCV RNA for each replicon sample is calculated by taking the sample's Ct value, minus the line intercept, divided by the slope of the line. Similarly, the amount of Cyclophilin mRNA per cell is also quantified using a linear regression curve for a known nanogram (ng) amount of HCV replicon total RNA. Again, this is established by plotting the Cycle Threshold values (Ct) from the Cyclophilin probe and primer set versus the log (ng) for each HCV replicon total RNA standard.
(§4) Data for replicons 1A, 1AY93H and 2B were obtained using Replicon Assay A and data for replicons 1AQ30D and 1B were obtained using Replicon Assay B.

HCV replicon 2B = assay: microbe, parasite or virus in culture; format: cell-based, Hepatitis C virus (HCV); settings: Replicon Assay A
Experimental: as §1, §2, §3, §4

[1] = read-out: 2B IC50, HCV replicon 2B
[2] = Hepatitis C virus, read-out: 2B IC50, HCV replicon 2B

COC(=O)N[C@H](C(=O)N1CCC[C@H]1c1ncc(-c2cc(F)c3c(c2)OC(c2ccc(C(C)C(F)(F)F)s2)n2c-3cc3cc(-c4cnc([C@@H]5CCCN5C(=O)[C@@H](NC(=O)OC)C(C)C)[nH]4)ccc32)[nH]1)C(C)C (single isomer, unassigned) [Compound 133]
IC50 (HCV replicon 1A): 0.002 nM
IC50 (HCV replicon 2B; read-out: 2B IC50, replicon 2B): 0.15 nM

COC(=O)NC(C(=O)N1CCC[C@H]1c1ncc(-c2ccc3c(c2)cc2n3C(c3ccc(C4CC4)s3)Oc3cc(-c4cnc([C@@H]5CCCN5C(=O)[C@@H](NC(=O)OC)C(C)C)[nH]4)cc(F)c3-2)[nH]1)C1CCOC2(CC2)C1 (single isomer, unassigned) [Compound 178]
IC50 (HCV replicon 1A): 0.0017 nM
IC50 (HCV replicon 2B; read-out: 2B IC50, replicon 2B): 3.4 nM

CCCc1ccc(C2Oc3cc(-c4cnc([C@@H]5CCCN5C(=O)[C@@H](NC(=O)OC)C(C)C)[nH]4)cc(F)c3-c3cc4cc(-c5cnc([C@@H]6C[C@H]7C[C@H]7N6C(=O)[C@@H](NC(=O)OC)C(C)C)[nH]5)ccc4n32)s1 (single isomer, unassigned) [Compound 561]
IC50 (HCV replicon 2B; [1]): 0.23 nM

CCCc1ccc(C2Oc3cc(-c4cnc([C@@H]5CCCN5C(=O)[C@@H](NC(=O)OC)C(C)C)[nH]4)cc(F)c3-c3cc4cc(-c5cnc([C@@H]6CCCN6C(=O)C(NC(=O)OC)C6CCOC(C)(C)C6)[nH]5)ccc4n32)s1 (single isomer, unassigned) [Compound 567]
IC50 (HCV replicon 2B; [1]): 0.011 nM

CCc1ccc(C2Oc3cc(-c4cnc([C@@H]5CCCN5C(=O)C(NC(=O)OC)C5CCOC(C)(C)C5)[nH]4)cc(F)c3-c3cc4cc(-c5cnc([C@@H]6CCCN6C(=O)[C@@H](NC(=O)OC)C(C)C)[nH]5)ccc4n32)s1 (single isomer, unassigned) [Compound 161]
IC50 (HCV replicon 1A): 0.0586 nM

COC(=O)NC(C(=O)N1CCC[C@H]1c1ncc(-c2ccc3c(c2)cc2n3C(c3ccc(C4CC4)s3)Oc3cc(-c4cnc([C@@H]5CCCN5C(=O)[C@@H](NC(=O)OC)C(C)C)[nH]4)cc(F)c3-2)[nH]1)C1CN(C(=O)C2CC2)C1 (single isomer, unassigned) [Compound 270]
IC50 (HCV replicon 1A): 0.62 nM

CCCc1ccc(C2Oc3cc(-c4cnc([C@@H]5CCCN5C(=O)[C@@H](NC(=O)OC)C(C)C)[nH]4)cc(F)c3-c3cc4cc(-c5cnc([C@@H]6CCCN6C(=O)C(NC(=O)OC)C6CCOC(C)(C)C6)[nH]5)ccc4n32)s1 (single isomer, unassigned) [Compound 566]
IC50 (HCV replicon 2B; [1]): 0.31 nM

COC(=O)NC(C(=O)N1[C@@H]2C[C@@H]2C[C@H]1c1ncc(-c2ccc3c(c2)cc2n3C(c3cc4ccccc4s3)Oc3cc(-c4cnc([C@@H]5CCCN5C(=O)[C@@H](NC(=O)OC)C(C)C)[nH]4)cc(F)c3-2)[nH]1)C1C[C@@H](C)O[C@@H](C)C1 (single isomer, unassigned) [Compound 646]
IC50 (HCV replicon 2B; [1]): 0.173 nM

COC(=O)NC(C(=O)N1CCC[C@H]1c1ncc(-c2ccc3c(c2)cc2n3C(c3ccc(C(C)C)s3)Oc3cc(-c4cnc([C@@H]5CCCN5C(=O)[C@@H](NC(=O)OC)C(C)C)[nH]4)cc(F)c3-2)[nH]1)C1C[C@@H](C)O[C@@H](C)C1 (single isomer, unassigned) [Compound 233]
IC50 (HCV replicon 1A): 0.066 nM

COC(=O)N[C@H](C(=O)N1CCC[C@H]1c1ncc(-c2cc(F)c3c(c2)OC(c2ccc(C4CC4(F)F)s2)n2c-3cc3cc(-c4cnc([C@@H]5CCCN5C(=O)[C@@H](NC(=O)OC)C(C)C)[nH]4)ccc32)[nH]1)C(C)C (single isomer, unassigned) [Compound 119]
IC50 (HCV replicon 2B; read-out: 2B IC50, replicon 2B): 0.073 nM

COC(=O)NC(C(=O)N1CCC[C@H]1c1ncc(-c2ccc3c(c2)cc2n3C(c3ccc(C4CC4)s3)Oc3cc(-c4cnc([C@@H]5CCCN5C(=O)[C@@H](NC(=O)OC)C(C)C)[nH]4)cc(C)c3-2)[nH]1)C1CCOC(C)(C)C1 (single isomer, unassigned) [Compound 565]
IC50 (HCV replicon 2B; [2]): 0.17 nM

COC(=O)NC(C(=O)N1CCC[C@H]1c1ncc(-c2cc(F)c3c(c2)OC(c2ccc(C4CC4)s2)n2c-3cc3cc(-c4cnc([C@@H]5CCCN5C(=O)C(NC(=O)OC)C5C[C@@H](C)O[C@@H](C)C5)[nH]4)ccc32)[nH]1)C1C[C@@H](C)O[C@@H](C)C1 (single isomer, unassigned) [Compound 302]
IC50 (HCV replicon 1A): > 13 nM

COC(=O)NC(C(=O)N1CCC[C@H]1c1ncc(-c2ccc3c(c2)cc2n3C(c3cc4c(s3)CCC4)Oc3cc(-c4cnc([C@@H]5CCCN5C(=O)[C@@H](NC(=O)OC)C(C)C)[nH]4)cc(F)c3-2)[nH]1)C1C[C@@H](C)O[C@@H](C)C1 (single isomer, unassigned) [Compound 204]
IC50 (HCV replicon 2B; Hepatitis C virus, read-out: 2B IC50 (nM), replicon 2B): 0.26 nM

C=C(C)C1Oc2cc(-c3cnc([C@@H]4CCCN4C(=O)[C@@H](N)C(C)C)[nH]3)cc(F)c2-c2cc3cc(-c4cnc([C@@H]5C[C@H]6C[C@H]6N5C(C)=O)[nH]4)ccc3n21 (single isomer, unassigned) [Compound 571]
IC50 (HCV replicon 2B; [1]): 0.087 nM

COC(=O)NC(C(=O)N1CCC[C@H]1c1ncc(-c2ccc3c(c2)cc2n3C(c3ccc(C4CC4)s3)Oc3cc(-c4cnc([C@@H]5CCCN5C(=O)[C@@H](NC(=O)OC)C(C)C)[nH]4)cc(F)c3-2)[nH]1)C1CN(C(=O)C2CC2)C1 (single isomer, unassigned) [Compound 268]
IC50 (HCV replicon 1A): 0.045 nM

COC(=O)N[C@H](C(=O)N1CCC[C@H]1c1ncc(-c2cc(F)c3c(c2)OC(c2ccc(C4CC4(F)F)s2)n2c-3cc3cc(-c4cnc([C@@H]5CCCN5C(=O)[C@@H](NC(=O)OC)C(C)C)[nH]4)ccc32)[nH]1)C(C)C (single isomer, unassigned) [Compound 116]
IC50 (HCV replicon 2B; read-out: 2B IC50, replicon 2B): 1.85 nM

COC(=O)NC(C(=O)N1[C@@H]2C[C@@H]2C[C@H]1c1ncc(-c2ccc3c(c2)cc2n3C(c3ccc(C(F)F)s3)Oc3cc(-c4cnc([C@@H]5CCCN5C(=O)[C@@H](NC(=O)OC)C(C)C)[nH]4)cc(F)c3-2)[nH]1)C1C[C@@H](C)O[C@@H](C)C1 (single isomer, unassigned) [Compound 285]
IC50 (HCV replicon 2B; read-out: 2B IC50, replicon 2B): 0.79 nM

C=C(C)C1Oc2cc(-c3cnc([C@@H]4CCCN4C(=O)[C@@H](N)C(C)C)[nH]3)cc(F)c2-c2cc3cc(-c4cnc([C@@H]5C[C@H]6C[C@H]6N5C(C)=O)[nH]4)ccc3n21 (single isomer, unassigned) [Compound 572]
IC50 (HCV replicon 2B; [1]): 0.031 nM

CCc1ccc(C2Oc3cc(-c4cnc([C@@H]5CCCN5C(=O)C(NC(=O)OC)C5CCOC(C)(C)C5)[nH]4)cc(F)c3-c3cc4cc(-c5cnc([C@@H]6CCCN6C(=O)C(NC(=O)OC)C6CCOC(C)(C)C6)[nH]5)ccc4n32)s1 (single isomer, unassigned) [Compound 294]
IC50 (HCV replicon 1A): > 1.67 nM

COC(=O)NC(C(=O)N1CCC[C@H]1c1ncc(-c2ccc3c(c2)cc2n3C(c3ccc(C4CC4)s3)Oc3cc(-c4cnc([C@@H]5CCCN5C(=O)[C@@H](NC(=O)OC)C(C)C)[nH]4)cc(F)c3-2)[nH]1)C1CC2CCC(C1)O2 (single isomer, unassigned) [Compound 180]
IC50 (HCV replicon 1A; Hepatitis C virus): 0.0025 nM

COC(=O)NC(C(=O)N1CCC[C@H]1c1ncc(-c2ccc3c(c2)cc2n3C(c3ccc(CC(F)(F)F)s3)Oc3cc(-c4cnc([C@@H]5CCCN5C(=O)[C@@H](NC(=O)OC)C(C)C)[nH]4)cc(F)c3-2)[nH]1)C1CCOC(C)(C)C1 (single isomer, unassigned) [Compound 425]
IC50 (HCV replicon 2B; [2]): 0.011 nM

COC(=O)N[C@H](C(=O)N1CCC[C@H]1c1ncc(-c2cc(F)c3c(c2)OC(c2cc4c(s2)C(C)(C)CC4)n2c-3cc3cc(-c4cnc([C@@H]5CCCN5C(=O)[C@@H](NC(=O)OC)C(C)C)[nH]4)ccc32)[nH]1)C(C)C (single isomer, unassigned) [Compound 391]
IC50 (HCV replicon 1A; Hepatitis C virus): 0.0035 nM

COC(=O)N[C@H](C(=O)N1CCC[C@H]1c1ncc(-c2cc(F)c3c(c2)OC(c2ccc(C4CC4(F)F)s2)n2c-3cc3cc(-c4cnc([C@@H]5CCCN5C(=O)[C@@H](NC(=O)OC)C(C)C)[nH]4)ccc32)[nH]1)C(C)C (single isomer, unassigned) [Compound 117]
IC50 (HCV replicon 2B; read-out: 2B IC50, replicon 2B): 0.028 nM

CCc1ccc(C2Oc3cc(-c4cnc([C@@H]5CCCN5C(=O)C(NC(=O)OC)C5C[C@@H](C)O[C@@H](C)C5)[nH]4)cc(F)c3-c3cc4cc(-c5cnc([C@@H]6CCCN6C(=O)[C@@H](NC(=O)OC)C(C)C)[nH]5)ccc4n32)s1 (single isomer, unassigned) [Compound 155]
IC50 (HCV replicon 1A): 0.167 nM

CCCc1ccc(C2Oc3cc(-c4cnc([C@@H]5CCCN5C(=O)[C@@H](NC(=O)OC)C(C)C)[nH]4)cc(F)c3-c3cc4cc(-c5cnc([C@@H]6C[C@H]7C[C@H]7N6C(=O)[C@@H](NC(=O)OC)C(C)C)[nH]5)ccc4n32)s1 (single isomer, unassigned) [Compound 562]
IC50 (HCV replicon 2B; [1]): 0.754 nM

CCc1ccc(C2Oc3cc(-c4cnc([C@@H]5CCCN5C(=O)C(NC(=O)OC)C5CCOC(C)(C)C5)[nH]4)cc(F)c3-c3cc4cc(-c5cnc([C@@H]6CCCN6C(=O)C(NC(=O)OC)C6CCOC(C)(C)C6)[nH]5)ccc4n32)s1 (single isomer, unassigned) [Compound 293]
IC50 (HCV replicon 1A): > 1.67 nM
